Assay [1] relates to L1210. Put plainly: (§1) Percent control for L1210 cell growth in the presence of thymidine (in vitro). The class given is functional, Mus musculus. Details: concentration or dose not given beside the values.
The subject of assay [2] is L1210. Put plainly: Growth inhibition of L1210 cells in culture. Format: functional, cell-based. The settings on record: Mus musculus.
The next assay has as its target Thymidylate synthase (Mus musculus, UniProt P07607). The assay is described as follows: Inhibition of partially purified thymidylate synthase (TS).
Assay [3] relates to L1210. The description is as §1. Format: functional, Mus musculus.

Chain of Thymidylate synthase (P07607 whole entry): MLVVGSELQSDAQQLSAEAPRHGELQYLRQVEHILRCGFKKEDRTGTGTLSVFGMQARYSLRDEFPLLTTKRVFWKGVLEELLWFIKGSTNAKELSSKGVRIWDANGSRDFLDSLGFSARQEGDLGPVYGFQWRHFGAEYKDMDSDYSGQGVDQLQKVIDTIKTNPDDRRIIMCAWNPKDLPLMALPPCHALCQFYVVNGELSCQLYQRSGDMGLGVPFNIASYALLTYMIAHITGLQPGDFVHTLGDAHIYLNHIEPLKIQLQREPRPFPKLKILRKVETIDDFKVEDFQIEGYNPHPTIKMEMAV

Consider `Cc1nc2ccc(CN(C)c3ccc(C(=O)N[C@@H](CCC(=O)O)C(=O)O)c(F)c3)cc2c(=O)[nH]1`, for which the Control in the assay with L1210 [1] came to 98%. Besides, the IC50 (as a rule, the point on the concentration scale where inhibition reaches its midpoint) is 0.019 µM in the assay on L1210 [2] and 0.12 µM at Thymidylate synthase.

Turning to `C#CCN(Cc1ccc2nc(C)[nH]c(=O)c2c1)c1ccc(C(=O)N[C@@H](CCC(=O)O)C(=O)O)c(N)c1`, the results for the IC50 with L1210 [2] and against Thymidylate synthase were 0.36 µM and 0.29 µM, respectively.

Turning to `C#CCN(Cc1ccc2nc(C)[nH]c(=O)c2c1)c1ccc(C(=O)N[C@@H](CCC(=O)O)C(=O)O)c(C(F)(F)F)c1`, the 50% inhibitory concentration (IC50) worked out at 1.2 µM in the assay on L1210 [2] and 0.48 µM on Thymidylate synthase.

Regarding `C#CCN(Cc1ccc2nc(C)[nH]c(=O)c2c1)c1ccc(C(=O)N[C@@H](CCC(=O)O)C(=O)O)cc1F`, the Control in the assay on L1210 [1] is listed as 102%. Also, the IC50 in the assay on L1210 [2] was found to be 0.052 µM; against Thymidylate synthase it was 1.43 µM.

As to `C=CCN(Cc1ccc2nc(C)[nH]c(=O)c2c1)c1ccc(C(=O)N[C@@H](CCC(=O)O)C(=O)O)cc1`, in the assay with L1210 [1], the Control stood at 104%.

Consider `Cc1nc2ccc(CN(C)c3ccc(C(=O)N[C@@H](CCC(=O)O)C(=O)O)c(N)c3)cc2c(=O)[nH]1`, for which the IC50 in the assay on L1210 [2] is 0.76 µM; at Thymidylate synthase it was 0.86 µM.

As to `CCN(Cc1ccc2nc(C)[nH]c(=O)c2c1)c1ccc(C(=O)N[C@@H](CCC(=O)O)C(=O)O)c(C)c1`, the Control in the assay with L1210 [1] amounted to 94%. Besides, the IC50 stood at 1.2 µM with L1210 [2] and 0.32 µM against Thymidylate synthase.

Regarding `C#CCN(Cc1ccc2nc(C)[nH]c(=O)c2c1)c1ccc(C(=O)N[C@@H](CCC(=O)O)C(=O)O)c(OC)c1`, in the assay on L1210 [1], the Control is reported as 95%. In addition, the IC50 in the assay on L1210 [2] stood at 3 µM; against Thymidylate synthase, 0.067 µM.

As to `Cc1nc2ccc(CN(CC#N)c3ccc(C(=O)N[C@@H](CCC(=O)O)C(=O)O)c(F)c3)cc2c(=O)[nH]1`, the Control with L1210 [1] is 90%. In addition, the IC50 amounted to 0.034 µM with L1210 [2] and 0.17 µM against Thymidylate synthase.

On to `C#CCN(Cc1ccc2nc(C)[nH]c(=O)c2c1)c1ccc(C(=O)N[C@@H](CCC(=O)O)C(=O)O)c([N+](=O)[O-])c1`, for which the IC50 in the assay on L1210 [2] stood at 0.4 µM; against Thymidylate synthase, 0.13 µM.

For `C#CCN(Cc1ccc2nc(C)[nH]c(=O)c2c1)c1ccc(C(=O)N[C@@H](CCC(=O)O)C(=O)O)c(Cl)c1`, the IC50 with L1210 [2] worked out at 0.25 µM; against Thymidylate synthase, 0.074 µM.

Consider `CCN(Cc1ccc2nc(C)[nH]c(=O)c2c1)c1ccc(C(=O)N[C@@H](CCC(=O)O)C(=O)O)cc1`, for which the Control in the assay on L1210 [1] is 88%.

In the case of `C=CCN(Cc1ccc2nc(C)[nH]c(=O)c2c1)c1ccc(C(=O)N[C@@H](CCC(=O)O)C(=O)O)cc1F`, the Control in the assay with L1210 [1] is recorded as 97%. Further, the IC50 stood at 0.14 µM in the assay with L1210 [2] and 5.16 µM against Thymidylate synthase.

Turning to `CCN(Cc1ccc2nc(C)[nH]c(=O)c2c1)c1ccc(C(=O)N[C@@H](CCC(=O)O)C(=O)O)c([N+](=O)[O-])c1`, the IC50 in the assay with L1210 [2] was 1.5 µM; against Thymidylate synthase, 0.145 µM.

Take `Cc1nc2ccc(CN(CCCO)c3ccc(C(=O)N[C@@H](CCC(=O)O)C(=O)O)cc3F)cc2c(=O)[nH]1`: the IC50 in the assay on L1210 [2] was determined as 0.17 µM; against Thymidylate synthase, 0.98 µM.

Take `Cc1nc2ccc(CN(C)c3ccc(C(=O)N[C@@H](CCC(=O)O)C(=O)O)cc3F)cc2c(=O)[nH]1`: the IC50 with L1210 [2] worked out at 0.14 µM; on Thymidylate synthase it was 1.14 µM. The Control with L1210 [3] was found to be 92%.

For the molecule `Cc1nc2ccc(CN(CCN)c3ccc(C(=O)N[C@@H](CCC(=O)O)C(=O)O)c(F)c3)cc2c(=O)[nH]1`, the values for the IC50 in the assay on L1210 [2] and at Thymidylate synthase were 2.7 µM and 11.7 µM, respectively.

Regarding `C#CCN(Cc1ccc2nc(C)[nH]c(=O)c2c1)c1ccc(C(=O)N[C@@H](CCC(=O)O)C(=O)O)cc1`, the Control in the assay with L1210 [1] is recorded as 100%.

Take `Cc1nc2ccc(CN(C)c3ccc(C(=O)N[C@@H](CCC(=O)O)C(=O)O)c(C)c3)cc2c(=O)[nH]1`: the IC50 was found to be 0.8 µM with L1210 [2] and 0.94 µM against Thymidylate synthase.

Take `C#CCN(Cc1ccc2nc(C)[nH]c(=O)c2c1)c1ccc(C(=O)N[C@@H](CCC(=O)O)C(=O)O)c(F)c1`: the Control in the assay with L1210 [1] was 97%.

For `C=CCN(Cc1ccc2nc(C)[nH]c(=O)c2c1)c1ccc(C(=O)N[C@@H](CCC(=O)O)C(=O)O)c(F)c1`, the Control with L1210 [1] was determined as 97%. The figures for the IC50 with L1210 [2] and against Thymidylate synthase were 0.1 µM and 0.076 µM, respectively.

As for `C#CCN(Cc1ccc2nc(C)[nH]c(=O)c2c1)c1ccc(C(=O)N[C@@H](CCC(=O)O)C(=O)O)c(O)c1`, the Control with L1210 [1] turned out to be 77%. The IC50 with L1210 [2] worked out at 0.5 µM; against Thymidylate synthase, 0.09 µM.

Turning to `CCN(Cc1ccc2nc(C)[nH]c(=O)c2c1)c1ccc(C(=O)N[C@@H](CCC(=O)O)C(=O)O)cc1F`, the Control in the assay on L1210 [1] is 96%. Besides, the IC50 was determined as 0.086 µM with L1210 [2] and 0.68 µM on Thymidylate synthase.

With `Cc1nc2ccc(CN(CCCO)c3ccc(C(=O)N[C@@H](CCC(=O)O)C(=O)O)c(F)c3)cc2c(=O)[nH]1`, the Control in the assay on L1210 [1] is given as 95%. Further, the values for the IC50 in the assay with L1210 [2] and against Thymidylate synthase were 0.03 µM and 0.59 µM, respectively.

`Cc1nc2ccc(CNc3ccc(C(=O)N[C@@H](CCC(=O)O)C(=O)O)c(F)c3)cc2c(=O)[nH]1`: the Control with L1210 [1] is 94%. Further, the figures for the IC50 in the assay with L1210 [2] and against Thymidylate synthase were 0.064 µM and 3.78 µM, respectively.

Turning to `Cc1nc2ccc(CN(CCF)c3ccc(C(=O)N[C@@H](CCC(=O)O)C(=O)O)c(F)c3)cc2c(=O)[nH]1`, the Control with L1210 [1] is given as 98%. In addition, the results for the IC50 in the assay with L1210 [2] and at Thymidylate synthase were 0.13 µM and 0.043 µM, respectively.

`Cc1nc2ccc(CN(CCO)c3ccc(C(=O)N[C@@H](CCC(=O)O)C(=O)O)cc3F)cc2c(=O)[nH]1`: in the assay with L1210 [1], the Control is 95%. Further, the values for the half-inhibitory concentration (IC50) in the assay with L1210 [2] and at Thymidylate synthase were 0.085 µM and 3.58 µM, respectively.

On to `C#CCN(Cc1ccc2nc(C)[nH]c(=O)c2c1)c1ccc(C(=O)N[C@@H](CCC(=O)O)C(=O)O)c(C)c1`, for which the Control in the assay with L1210 [1] came out at 97%. In addition, the IC50 with L1210 [2] came out at 0.36 µM; against Thymidylate synthase, 0.5 µM.

`Cc1nc2ccc(CN(CCO)c3ccc(C(=O)N[C@@H](CCC(=O)O)C(=O)O)c(F)c3)cc2c(=O)[nH]1`: the figures for the IC50 in the assay with L1210 [2] and on Thymidylate synthase were 0.07 µM and 0.078 µM, respectively.

`CCN(Cc1ccc2nc(C)[nH]c(=O)c2c1)c1ccc(C(=O)N[C@@H](CCC(=O)O)C(=O)O)c(F)c1`: the Control in the assay on L1210 [1] is 96%. Besides, the IC50 in the assay on L1210 [2] is 0.065 µM; on Thymidylate synthase it was 0.045 µM.

In the case of `Cc1nc2ccc(CN(CCCO)c3ccc(C(=O)N[C@@H](CCC(=O)O)C(=O)O)cc3)cc2c(=O)[nH]1`, the Control in the assay on L1210 [1] came to 95%.

As for `Cc1nc2ccc(CN(CC(N)=O)c3ccc(C(=O)N[C@@H](CCC(=O)O)C(=O)O)c(F)c3)cc2c(=O)[nH]1`, the IC50 came to 0.8 µM in the assay on L1210 [2] and 1.34 µM on Thymidylate synthase.

`Cc1nc2ccc(CN(C)c3ccc(C(=O)N[C@@H](CCC(=O)O)C(=O)O)cc3)cc2c(=O)[nH]1`: the Control in the assay on L1210 [1] is 100%.

As for `CCN(Cc1ccc2nc(C)[nH]c(=O)c2c1)c1ccc(C(=O)N[C@@H](CCC(=O)O)C(=O)O)c(N)c1`, the results for the IC50 in the assay on L1210 [2] and against Thymidylate synthase were 1.3 µM and 0.31 µM, respectively.

As to `CCN(Cc1ccc2nc(C)[nH]c(=O)c2c1)c1ccc(C(=O)N[C@@H](CCC(=O)O)C(=O)O)c(Cl)c1`, the values for the IC50 in the assay with L1210 [2] and against Thymidylate synthase were 0.87 µM and 0.12 µM, respectively.

Regarding `Cc1nc2ccc(CNc3ccc(C(=O)N[C@@H](CCC(=O)O)C(=O)O)cc3F)cc2c(=O)[nH]1`, the Control with L1210 [1] is listed as 86%. Besides, the figures for the IC50 with L1210 [2] and at Thymidylate synthase were 0.12 µM and 9.34 µM, respectively.

Take `CCN(Cc1ccc2nc(C)[nH]c(=O)c2c1)c1ccc(C(=O)N[C@@H](CCC(=O)O)C(=O)O)c(OC)c1`: the results for the IC50 in the assay on L1210 [2] and on Thymidylate synthase were 18 µM and 0.19 µM, respectively.

Turning to `Cc1nc2ccc(CN(CCF)c3ccc(C(=O)N[C@@H](CCC(=O)O)C(=O)O)cc3F)cc2c(=O)[nH]1`, the half-maximal inhibitory concentration (IC50) in the assay with L1210 [2] worked out at 0.069 µM; against Thymidylate synthase, 1.75 µM.

Values taken from ChEMBL document CHEMBL1125149, “Quinazoline antifolate thymidylate synthase inhibitors: benzoyl ring modifications in the C2-methyl series” (J Med Chem, 1990).
